The source of these data is PMC3274592 (Archives of Biochemistry and Biophysics, 2011).

pKd: −log10 of the molar value.

Assay [1] addresses CYP158A1 (Streptomyces coelicolor, UniProt Q9KZF5, K90I). As to the kind of experiment: UV-vis difference spectral titration. In kind it is binding.
Assay [2] has as its target CYP158A1 (Streptomyces coelicolor, UniProt Q9KZF5). As to the kind of experiment: UV-vis difference spectral titration. In kind it is binding.

CYP158A1 (Streptomyces coelicolor, UniProt Q9KZF5, K90I), sequence (Q9KZF5 whole entry K90I): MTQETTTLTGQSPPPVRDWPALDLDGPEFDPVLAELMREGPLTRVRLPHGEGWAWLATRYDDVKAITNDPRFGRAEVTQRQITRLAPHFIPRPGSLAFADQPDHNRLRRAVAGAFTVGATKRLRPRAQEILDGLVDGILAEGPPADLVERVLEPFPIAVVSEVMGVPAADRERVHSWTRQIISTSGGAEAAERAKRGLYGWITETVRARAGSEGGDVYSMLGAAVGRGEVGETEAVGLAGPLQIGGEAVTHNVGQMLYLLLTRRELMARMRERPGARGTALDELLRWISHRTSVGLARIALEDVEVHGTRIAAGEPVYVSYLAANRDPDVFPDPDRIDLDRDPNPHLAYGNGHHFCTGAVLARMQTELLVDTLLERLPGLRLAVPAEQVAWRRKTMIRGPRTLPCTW
CYP158A1 (Streptomyces coelicolor, UniProt Q9KZF5), sequence (Q9KZF5 whole entry): as the sequence (Q9KZF5 whole entry K90I) above, with I90K counted along it

On to `O=C1C(O)=CC(=O)c2c(O)cc(O)cc21` [flaviolin], for which the pKd was 4.77 at CYP158A1 [1] and 4.98 at CYP158A1 [2].
